Data published in US20120252796A1, “COMPOUNDS FOR THE TREATMENT OF DYSLIPIDEMIA AND RELATED DISEASES” (priority 2009, published 2012).

How the values were obtained:
[1] = molecular target: T1, PCSK9 (Homo sapiens, UniProt Q8NBP7); assay: PCSK9-LDLR in vitro Binding Assay (ELISA)
Experimental: The PCSK9-LDLR in vitro Binding Assay is a quantitative solid phase binding assay between PCSK9 and recombinant LDLR. Plates were pre-coated with a recombinant LDLR-AB domain, which binds PCSK9. Test compound at different concentration was added to the PCSK9 and added to LDLR immobilized on the wells. The amount of bound PCSK9 is measured by binding it with biotinylated anti-His-tag monoclonal antibody, followed by binding with horseradish peroxidase conjugated streptavidin substrate. The color was quantified by ELISA reader at […] which reflects the relative amount of PCSK9 that binds to LDLR in presence and absence of the inhibitor. EC50 values were calculated by nonlinear regression analysis using graph pad prism software. Each concentration point represents values in duplicates.
Target sequence in this assay (Q8NBP7 153-692): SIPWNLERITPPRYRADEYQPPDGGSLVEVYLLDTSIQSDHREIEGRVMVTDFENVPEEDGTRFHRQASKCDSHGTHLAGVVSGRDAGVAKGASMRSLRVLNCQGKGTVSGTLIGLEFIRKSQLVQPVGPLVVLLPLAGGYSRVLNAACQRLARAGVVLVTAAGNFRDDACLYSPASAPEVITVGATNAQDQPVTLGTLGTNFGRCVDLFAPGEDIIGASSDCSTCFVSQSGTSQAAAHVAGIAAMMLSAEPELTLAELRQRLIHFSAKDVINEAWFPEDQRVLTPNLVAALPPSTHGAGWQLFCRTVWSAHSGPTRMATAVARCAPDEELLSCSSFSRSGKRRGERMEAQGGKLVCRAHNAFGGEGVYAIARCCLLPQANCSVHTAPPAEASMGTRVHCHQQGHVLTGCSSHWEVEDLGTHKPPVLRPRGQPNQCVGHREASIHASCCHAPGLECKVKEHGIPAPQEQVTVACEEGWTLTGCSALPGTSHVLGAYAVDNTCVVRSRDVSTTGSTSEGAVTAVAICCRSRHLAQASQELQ
Target sequence in this assay (Q8NBP7 31-152 partner limits assumed): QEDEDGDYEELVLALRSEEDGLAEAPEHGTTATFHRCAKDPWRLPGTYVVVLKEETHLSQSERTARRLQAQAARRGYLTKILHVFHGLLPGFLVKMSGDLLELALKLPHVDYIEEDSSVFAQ

[2] = system: LPS induced dyslipidemia model C57 mice; assay: LDL-C lowering activity in LPS induced dyslipidemia model C57 mice; format: in vivo; settings: male C57 mice, i.p. or oral, 24 hours after LPS, vs Vehicle group
Experimental: Male C57 mice of 7-10 week age are grouped based on non-fasting LDL-C levels, on next day these mice were administered with Vehicle or test compounds (i.p. or oral) and 30 min after compound administration lipolysaccharide (LPS) was administered. After LPS administration all animals were kept on fasting for 24 hours, after that animals were bled and LDL-C was measured. The percent change in LDL-C in test compound group Vs Vehicle group was calculated.

[3] = molecular target: T1, PCSK9; assay: SPR binding studies (BIACORE3000); settings: 25° C., phosphate buffer pH 7.4; compounds run at 10 nM, 100 nM and 1 micro mole, concentration of the value not stated
Experimental: Instrumentation: BIACORE3000 from GE Life Sciences was used and the Interaction analysis was performed at 25° C.
Buffers: phosphate buffer pH 7.4 supplied by Biacore supplemented with 0.01% dimethyl sulfoxide (DMSO) was used as running buffer during the assay.
Immobilization of Ligand: Sensor chip CM5 was used for analysis. The sensor chip consists of a carboxymethyl-modified dextran polymer linked to a gold-covered glass support. The ligand was diluted to 10 micro gram/ml in 10 mM sodium acetate, pH5.0 and immobilized to the sensor chip, using amine coupling. Running buffer without DMSO was used during immobilization. The surface was activated by injecting a solution containing 0.2M N-ethyl-N′-dimethyl aminopropyl-carbodiimide (EDC) and 50 mM N-hydroxy succinimide (NHS). The system was set for Aim for immobilization of about 1000 RU and the surface was blocked by injecting 1 Mehanolamine at pH 8.5. Then the surface was washed with 50 mM NaOH by injecting two 30 second-pulses to remove off non covalently bound ligand and to stabilize the baseline (automated procedure). Activated dextran was used as a reference surface. To ensure highest sensitivity the SPR Detector response was normalized before running the assay. By calibrating the detector at various light intensities under Conditions of total internal reflection (automated procedure). Solvent correction for DMSO was also carried to minimize the error in data.
Assay Design: A binding assay was set up for different compounds at three different concentrations (10 nM, 100 nM and 1 micro mole), and were injected over the reference and Ligand flow cells at a flow rate of 30 micro liter/min. Each cycle consisted of a 1-min waiting period for monitoring of the baseline stability and 3 minute injection of compound with a 5 minute Undisturbed dissociation phase, and the surface was regenerated with 50 mM NaoH solution. Compound responses in the reference flow cell were subtracted with that of ligand and a solvent correction run was carried in between and the binding potential of the compounds was reported as relative response units (RU).
Target sequence in this assay (Q8NBP7 153-692): as the sequence (Q8NBP7 153-692) above

[4] = system: HF-HC diet fed Syrian golden hamsters; assay: Lipid lowering effect in HF-HC diet fed hamster model; format: in vivo; design: concentration or dose not given beside the values; settings: oral gavage once daily, day 14
Excerpt: In this experiment, Syrian golden hamsters which were kept on high fat—high cholesterol (HF-HC) fructose diet for 2 weeks were divided into various groups based on LDL-C and Total cholesterol levels. The treatment was given by oral gavages once daily for 14 days. The blood was collected by retro-orbital sinus puncture method under light ether anesthesia on day 0 (pretreatment), and day 14 of the treatment for lipid levels measurements. The percent change in LDL-C in compound group Vs Vehicle group was calculated.

Cc1oc(-c2ccccc2)nc1CCC1COC(C)(C(=O)NCC2CCOCC2)OC1 (stereo not shown) [Example 37, 2-methyl-5-(2-(5-methyl-2-phenyloxazol-4-yl)ethyl)-N—((tetrahydro-2H-pyran-4-yl)methyl)-1,3-dioxane-2-carboxamide]
inhibition at 1 µM ([1]; Concentration 1 μM): 24% | inhibition at 10 µM ([1]; Concentration 10 μM): 15% | inhibition at 100 µM ([1]; Concentration 100 μM): 20% | % Change in LDL-C [2]: −35.4 ± 8.3%

Cc1ccc(-c2nc(CC3COC(C)(C(=O)NO)OC3)c(C)o2)cc1 (stereo not shown) [Example 59, N-hydroxy-2-methyl-5-((5-methyl-2-(p-tolyl)oxazol-4-yl)methyl)-1,3-dioxane-2-carboxamide]
inhibition at 1 µM ([1]; Concentration 1 μM): 26% | inhibition at 10 µM ([1]; Concentration 10 μM): 27% | inhibition at 100 µM ([1]; Concentration 100 μM): 61% | Relative response (RU) [3]: 1.36 RU

Cc1oc(-c2ccccc2)nc1CC1COC(C)(C(=O)N2CCN(C)CC2)OC1 (stereo not shown) [Example 14, (2-methyl-5-c-((5-methyl-2-phenyloxazol-4-yl)methyl)-1,3-dioxan-2-yl)(4-methylpiperazin-1-yl)methanone]
% Inhibition PCSK9 ([1]; Concentration 10 μM): 41% | % Inhibition PCSK9 ([1]; Concentration 100 μM): 5% | Relative response (RU) [3]: 15.81 RU

Cc1oc(-c2ccncc2)nc1CC1COC(C)(C(=O)NO)OC1 (stereo not shown) [Example 80, N-hydroxy-2-methyl-5-c-((5-methyl-2-(pyridin-4-yl)oxazol-4-yl)methyl)-1,3-dioxane-2-carboxamide]
% Inhibition PCSK9 ([1]; Concentration 1 μM, 1 µM): 32% | % Inhibition PCSK9 ([1]; Concentration 10 μM, 10 µM): 44% | % Inhibition PCSK9 ([1]; Concentration 100 μM, 100 µM): 34% | Relative response (RU) [3]: 2.64 RU

Cc1oc(-c2ccccc2)nc1CC1COC(C)(C(=O)NO)OC1 (single isomer, unassigned) [Example 6, N-hydroxy-2-methyl-5-c-((5-methyl-2-phenyloxazol-4-yl)methyl)-1,3-dioxane-2-carboxamide]
% Inhibition PCSK9 ([1]; 5 µM): 10% | % Inhibition PCSK9 ([1]; 10 µM): 11% | % Inhibition PCSK9 ([1]; 100 µM): 22% | Relative response (RU) [3]: 2.65 RU

Cc1oc(-c2ccccc2)nc1CC1COC(C)(C(=O)NCC2CCOCC2)OC1 (stereo not shown) [Example 8, 2-methyl-5-((5-methyl-2-phenyloxazol-4-yl)methyl)-N—((tetrahydro-2H-pyran-4-yl)methyl)-1,3-dioxane-2-carboxamide]
inhibition at 1 µM ([1]; Concentration 1 μM): 18% | inhibition at 10 µM ([1]; Concentration 10 μM): 23% | inhibition at 100 µM ([1]; Concentration 100 μM): 30% | % Change in LDL-C [2]: −33.5 ± 5.4%

Cc1ccc(-c2nc(CC3COC(C)(C(=O)NCC4CCOCC4)OC3)c(C)o2)cc1 (stereo not shown) [Example 63, 2-methyl-5-c-((5-methyl-2-(p-tolyl)oxazol-4-yl)methyl)-N—((tetrahydro-2H-pyran-4-yl)methyl)-1,3-dioxane-2-carboxamide]
% Inhibition PCSK9 ([1]; Concentration 1 μM, 1 µM): 39% | % Inhibition PCSK9 ([1]; Concentration 10 μM, 10 µM): 40% | % Inhibition PCSK9 ([1]; Concentration 100 μM, 100 µM): 51% | % Change in LDL-C [2]: −9.0 ± 10.0%

Cc1oc(-c2ccccc2)nc1CC1COC(C)(C(=O)N2CCOCC2)OC1 (stereo not shown) [Example 12, (2-methyl-5-c-((5-methyl-2-phenyloxazol-4-yl)methyl)-1,3-dioxan-2-yl)(morpholino)methanone]
% Inhibition PCSK9 ([1]; Concentration 10 μM): 19% | % Inhibition PCSK9 ([1]; Concentration 100 μM): 18% | % Change in LDL-C [2]: −40 ± 10.0%

Cc1oc(-c2ccccc2)nc1CC1COC(C)(C(=O)NO)OC1 (single isomer, unassigned) [Example 7, N-hydroxy-2-methyl-5-t-((5-methyl-2-phenyloxazol-4-yl)methyl)-1,3-dioxane-2-carboxamide]
% Inhibition PCSK9 ([1]; Concentration 1 μM): 11% | % Inhibition PCSK9 ([1]; Concentration 10 μM): 12% | % Inhibition PCSK9 ([1]; Concentration 100 μM): 20% | % Change Vs Vehicle Control HDL-C [4]: −20.1% | % Change Vs Vehicle Control LDL-C [4]: −29.3% | % Change Vs Vehicle Control TC [4]: −29.6% | % Change Vs Vehicle Control TG [4]: −26.7%

Cc1oc(-c2ccccc2)nc1CC1COC(C)(C(=O)NCC(=O)N2CCOCC2)OC1 (stereo not shown) [Example 19, 2-methyl-5-c-((5-methyl-2-phenyloxazol-4-yl)methyl)-N-(2-morpholino-2-oxoethyl)-1,3-dioxane-2-carboxamide]
% Inhibition PCSK9 ([1]; Concentration 10 μM): 23% | % Inhibition PCSK9 ([1]; Concentration 100 μM): 25% | Relative response (RU) [3]: 14.1 RU

Cc1oc(-c2ccncc2)nc1CC1COC(C)(C(=O)NCC2CCOCC2)OC1 (stereo not shown) [Example 85, 2-methyl-5-t-((5-methyl-2-(pyridin-4-yl)oxazol-4-yl)methyl)-N—((tetrahydro-2H-pyran-4-yl)methyl)-1,3-dioxane-2-carboxamide]
% Inhibition PCSK9 ([1]; Concentration 1 μM, 1 µM): 22% | % Inhibition PCSK9 ([1]; Concentration 10 μM, 10 µM): 30% | % Inhibition PCSK9 ([1]; Concentration 100 μM, 100 µM): 44% | Relative response (RU) [3]: 17.29 RU

Cc1oc(C(C)(C)C)nc1CC1COC(C)(C(=O)N2CCOCC2)OC1 (stereo not shown) [Example 73, (5-((2-(tert-butyl)-5-methyloxazol-4-yl)methyl)-2-methyl-1,3-dioxan-2-yl)(morpholino)methanone]
inhibition at 1 µM ([1]; Concentration 1 μM): 25% | inhibition at 10 µM ([1]; Concentration 10 μM): 27% | inhibition at 100 µM ([1]; Concentration 100 μM): 37% | Relative response (RU) [3]: 2.4 RU

N-hydroxy-2-methyl-5-(2-(5-methyl-2-phenyloxazol-4-yl)ethyl)-1,3-dioxane-2-carboxamide [Example 34]
% Inhibition PCSK9 ([1]; Concentration 1 μM): 11% | % Inhibition PCSK9 ([1]; Concentration 10 μM): 12% | % Inhibition PCSK9 ([1]; Concentration 100 μM): 15% | Relative response (RU) [3]: 1.95 RU | % Change Vs Vehicle Control HDL-C [4]: −10.3% | % Change Vs Vehicle Control LDL-C [4]: −38.2% | % Change Vs Vehicle Control TC [4]: −32.6% | % Change Vs Vehicle Control TG [4]: 2.2%

Cc1ccc(-c2nc(CC3COC(C)(C(=O)NCC4CCOCC4)OC3)c(C)o2)cc1 (stereo not shown) [Example 64, 2-methyl-5-t-((5-methyl-2-(p-tolyl)oxazol-4-yl)methyl)-N—((tetrahydro-2H-pyran-4-yl)methyl)-1,3-dioxane-2-carboxamide]
% Inhibition PCSK9 ([1]; Concentration 0.1 μM): 20% | % Inhibition PCSK9 ([1]; Concentration 1 μM, 1 µM): 23% | % Inhibition PCSK9 ([1]; Concentration 10 μM, 10 µM): 25% | % Inhibition PCSK9 ([1]; Concentration 100 μM, 100 µM): 49% | Relative response (RU) [3]: 3.48 RU

Cc1oc(-c2ccncc2)nc1CC1COC(C)(C(=O)NCC(=O)N2CCOCC2)OC1 (stereo not shown) [Example 86, 2-methyl-5-c-((5-methyl-2-(pyridin-4-yl)oxazol-4-yl)methyl)-N-(2-morpholino-2-oxoethyl)-1,3-dioxane-2-carboxamide]
% Inhibition PCSK9 ([1]; Concentration 10 μM, 10 µM): 11% | % Inhibition PCSK9 ([1]; Concentration 100 μM, 100 µM): 15% | Relative response (RU) [3]: 14.95 RU

Cc1oc(-c2ccccc2)nc1CC1COC(C)(C(=O)NCCC(=O)N2CCOCC2)OC1 (stereo not shown) [Example 26, 2-methyl-5-c-((5-methyl-2-phenyloxazol-4-yl)methyl)-N-(3-morpholino-3-oxopropyl)-1,3-dioxane-2-carboxamide]
Relative response (RU) [3]: 10.3 RU

Cc1oc(-c2ccncc2)nc1CC1COC(C)(C(=O)NCC(=O)NCC2CCOCC2)OC1 (stereo not shown) [Example 88, 2-methyl-5-c-((5-methyl-2-(pyridin-4-yl)oxazol-4-yl)methyl)-N-(2-oxo-2-(((tetrahydro-2H-pyran-4-yl)methyl)amino)ethyl)-1,3-dioxane-2-carboxamide]
% Inhibition PCSK9 ([1]; Concentration 10 μM, 10 µM): 10% | % Inhibition PCSK9 ([1]; Concentration 100 μM, 100 µM): 15%

Cc1oc(C(C)(C)C)nc1CC1COC(C)(C(=O)NO)OC1 (stereo not shown) [Example 72, 5-((2-(tert-butyl)-5-methyloxazol-4-yl)methyl)-N-hydroxy-2-methyl-1,3-dioxane-2-carboxamide]
inhibition at 5 µM ([1]; Concentration 5 μM): 11% | inhibition at 100 µM ([1]; Concentration 100 μM): 25% | inhibition at 110 µM ([1]; Concentration 110 μM): 20%

Cc1ccc(-c2nc(CC3COC(C)(C(=O)NO)OC3)c(C)o2)cc1 (stereo not shown) [Example 60, N-hydroxy-2-methyl-5-c-((5-methyl-2-(p-tolyl)oxazol-4-yl)methyl)-1,3-dioxane-2-carboxamide]
% Inhibition PCSK9 ([1]; Concentration 1 μM): 28% | % Inhibition PCSK9 ([1]; Concentration 10 μM, 10 µM): 26% | % Inhibition PCSK9 ([1]; Concentration 100 μM, 100 µM): 70%
